Experimental data published in patent US9403776B2, “Aryl- and heteroaryl-substituted tetrahydrobenzazepines and use thereof to block reuptake of norepinephrine, dopamine, and serotonin” (Albany Molecular Research, Inc., priority 2005, dated 2016).
Counter-ions that a name gives are not always drawn.

Row | Structure (SMILES) | melting point
1 | CN1CCC(c2ccccc2)c2ccc(F)cc2C1.O=C(O)/C=C\C(=O)O (centres unmarked) | 153 to 155 °C
2 | COc1ccc2c(c1)CN(C)CCC2c1cc(F)c(C#N)c(F)c1 (centres unmarked) (as salt: citrate) | 82 to 86 °C
3 | CN1CCC(c2ccccc2)c2ccc(C#N)cc2C1 (centres unmarked) (as salt: maleate) | 67 to 69 °C
4 | COc1ccc2c(c1)CN(C)CCC2c1ccccc1 (racemic) (as salt: fumarate) [Example 1, (+/−)-8-methoxy-2-methyl-5-phenyl-2,3,4,5-tetrahydro-1H-benzo[c]azepine] | 171 to 173 °C
5 | COc1cccc2c1C(c1ccccc1)CCN(C)C2 (racemic) (as salt: fumarate) [Example 2, (+/−)-6-methoxy-2-methyl-5-phenyl-2,3,4,5-tetrahydro-1H-benzo[c]azepine] | 154 to 156 °C
6 | COc1ccc2c(c1)CN(C)CCC2c1ccc(F)cc1 (racemic) (as salt: hydrochloride) [Example 3, (+/−)-5-(4-fluorophenyl)-8-methoxy-2-methyl-2,3,4,5-tetrahydro-1H-benzo[c]azepine] | 149 to 150 °C
7 | COc1ccc(C2CCN(C)Cc3cc(OC)ccc32)cc1 (racemic) (as salt: hydrochloride) [Example 5, (+/−)-5-(4-methoxyphenyl)-8-methoxy-2-methyl-2,3,4,5-tetrahydro-1H-benzo[c]azepine] | 165 to 166 °C
8 | COc1ccc2c(c1)CN(C)CCC2c1ccc(Cl)cc1 (racemic) (as salt: hydrochloride) [Example 7, (+/−)-5-(4-chlorophenyl)-8-methoxy-2-methyl-2,3,4,5-tetrahydro-1H-benzo[c]azepine] | 152 to 153 °C
9 | COc1ccc2c(c1)CN(C)CCC2c1ccc(F)c(F)c1 (racemic) (as salt: hydrochloride) [Example 9, (+/−)-5-(3,4-difluorophenyl)-8-methoxy-2-methyl-2,3,4,5-tetrahydro-1H-benzo[c]azepine] | 139 to 141 °C
10 | COc1ccc2c(c1)CN(C)CCC2c1ccccc1Cl (racemic) (as salt: hydrochloride) [Example 10, (+/−)-5-(2-chlorophenyl)-8-methoxy-2-methyl-2,3,4,5-tetrahydro-1H-benzo[c]azepine] | 129 to 132 °C
11 | COc1ccc2c(c1)CN(C)CCC2c1ccc(F)c(Cl)c1 (racemic) (as salt: hydrochloride) [Example 11, (+/−)-5-(3-chloro-4-fluorophenyl)-8-methoxy-2-methyl-2,3,4,5-tetrahydro-1H-benzo[c]azepine] | 167 to 169 °C
12 | Cc1ccc2c(c1)CN(C)CCC2c1ccc(F)cc1 (single isomer, unassigned; (+)) (as salt: hydrochloride) [Example 16, (+)-5-(4-fluorophenyl)-2,8-dimethyl-2,3,4,5-tetrahydro-1H-benzo[c]azepine] | 243 to 244 °C
13 | Cc1ccc(-c2ccc3c(c2)CN(C)CCC3c2ccccc2)nn1 (single isomer, unassigned; (+)) (as salt: hydrochloride) [Example 24, (+)-2-methyl-8-(6-methyl-pyridazin-3-yl)-5-phenyl-2,3,4,5-tetrahydro-1H-benzo[c]azepine] | 168 to 170 °C
14 | CN1CCC(c2ccccc2)c2ccc(-c3cccnn3)cc2C1 (single isomer, unassigned; (+)) (as salt: hydrochloride) [Example 25, (+)-2-methyl-5-phenyl-8-(pyridazin-3-yl)-2,3,4,5-tetrahydro-1H-benzo[c]azepine] | 154 to 156 °C
15 | CN1CCC(c2ccccc2)c2ccc(-c3ccc(N(C)C)nn3)cc2C1 (single isomer, unassigned; (+)) (as salt: maleate) [Example 26, (+)-dimethyl-[6-(2-methyl-5-phenyl-2,3,4,5-tetrahydro-1H-benzo[c]azepine-8-yl)-pyridazin-3-yl]-amine] | 99 to 102 °C
16 | CN1CCC(c2ccccc2)c2ccc(-c3ncccn3)cc2C1 (single isomer, unassigned; (+)) (as salt: maleate) [Example 27, (+)-2-methyl-5-phenyl-8-(pyrimidin-2-yl)-2,3,4,5-tetrahydro-1H-benzo[c]azepine] | 76 to 78 °C

Other lines, results leading:

Row | melting point | Structure (SMILES)
17 | 88 to 90 °C | COc1ccc2c(c1)CN(C)CCC2c1cc(F)c(O)c(F)c1 (centres unmarked) (as salt: citrate) [Example 62, 2,6-difluoro-4-(8-methoxy-2-methyl-2,3,4,5-tetrahydro-1H-benzo[c]azepin-5-yl)phenol]
18 | 50 to 54 °C | COc1ccc2c(c1)CN(C)CCC2c1ccc(O)c(F)c1 (centres unmarked) (as salt: maleate) [Example 63, 2-fluoro-4-(8-methoxy-2-methyl-2,3,4,5-tetrahydro-1H-benzo[c]azepin-5-yl)phenol]
19 | 154 to 156 °C | COc1ccc2c(c1)CNCCC2c1ccccc1 (racemic) (as salt: maleate) [Example 53, (+/−)-8-methoxy-5-phenyl-2,3,4,5-tetrahydro-1H-benzo[c]azepine]
20 | 172 to 175 °C | COc1ccc2c(c1)CN(C(C)C)CCC2c1ccccc1 (racemic) (as salt: maleate) [Example 55, (+/−)-2-isopropyl-8-methoxy-5-phenyl-2,3,4,5-tetrahydro-1H-benzo[c]azepine]
21 | 96 to 98 °C | CN1CCC(c2ccc(Cl)cc2)c2ccc(-c3ccc(N(C)C)nn3)cc2C1 (single isomer, unassigned) (as salt: maleate) [Example 45, {6-[5-(4-chlorophenyl)-2-methyl-2,3,4,5-tetrahydro-1H-benzo[c]azepine-8-yl]-pyridazin-3-yl}-dimethylamine]
22 | 90 to 95 °C | Cc1ccc(-c2ccc3c(c2)CN(C)CCC3c2cccc(F)c2)nn1 (single isomer, unassigned; (+)) (as salt: citrate) [Example 84 (+), (+)-5-(3-fluorophenyl)-2-methyl-8-(6-methylpyridazin-3-yl)-2,3,4,5-tetrahydro-1H-benzo[c]azepine]
23 | 179 to 181 °C (dec.) | Cc1ccc(-c2ccc3c(c2)CN(C)CCC3c2ccc(Cl)cc2)nn1 (single isomer, unassigned; (+)) (as salt: hydrochloride) [Example 39, (+)-5-(4-chlorophenyl)-2-methyl-8-(6-methyl-pyridazin-3-yl)-2,3,4,5-tetrahydro-1H-benzo[c]azepine]
24 | 187 to 189 °C (dec.) | CN1CCC(c2ccc(Cl)cc2)c2ccc(-c3cccnn3)cc2C1 (single isomer, unassigned; (+)) (as salt: hydrochloride) [Example 40, (+)-5-(4-chlorophenyl)-2-methyl-8-pyridazin-3-yl-2,3,4,5-tetrahydro-1H-benzo[c]azepine]
25 | 93 to 96 °C | CN1CCC(c2ccccc2)c2ccc(-c3cncnc3)cc2C1 (single isomer, unassigned; (+)) (as salt: maleate) [Example 28, (+)-2-methyl-5-phenyl-8-(pyrimidin-5-yl)-2,3,4,5-tetrahydro-1H-benzo[c]azepine]
26 | 67 to 69 °C | CN1CCC(c2ccccc2)c2ccc(-c3cnccn3)cc2C1 (single isomer, unassigned; (+)) (as salt: maleate) [Example 29, (+)-2-methyl-5-phenyl-8-(pyrazin-2-yl)-2,3,4,5-tetrahydro-1H-benzo[c]azepine]
27 | 91 to 93 °C | CN1CCC(c2ccccc2)c2ccc(-c3ccncc3)cc2C1 (single isomer, unassigned; (+)) (as salt: maleate) [Example 31, (+)-2-methyl-5-phenyl-8-(pyridin-4-yl)-2,3,4,5-tetrahydro-1H-benzo[c]azepine]
28 | 112 to 114 °C | CN1CCC(c2ccccc2)c2ccc(-c3cccc(N)n3)cc2C1 (single isomer, unassigned; (+)) (as salt: maleate) [Example 32, (+)-6-(2-methyl-5-phenyl-2,3,4,5-tetrahydro-1H-benzo[c]azepin-8-yl)pyridine-2-amine]
29 | 88 to 89 °C | CN1CCC(c2ccccc2)c2ccc(N3CCOCC3)cc2C1 (single isomer, unassigned; (+)) (as salt: maleate) [Example 34, (+)-4-(2-methyl-5-phenyl-2,3,4,5-tetrahydro-1H-benzo[c]azepin-8-yl)morpholine]
30 | 196 to 198 °C | Cc1noc(C)c1-c1ccc2c(c1)CN(C)CCC2c1ccc(Cl)cc1 (single isomer, unassigned; (+)) (as salt: maleate) [Example 43, (+)-5-(4-chlorophenyl)-8-(3,5-dimethylisoxazol-4-yl)-2-methyl-2,3,4,5-tetrahydro-1H-benzo[c]azepine]
31 | 84 to 85 °C | CN1CCC(c2ccc(Cl)cc2)c2ccc(-c3ncccn3)cc2C1 (single isomer, unassigned; (+)) (as salt: maleate) [Example 44, (+)-5-(4-chlorophenyl)-2-methyl-8-pyrimidin-2-yl-2,3,4,5-tetrahydro-1H-benzo[c]azepine]
32 | 94 to 96 °C | CN1CCC(c2ccc(Cl)cc2)c2ccc(N3CCOCC3)cc2C1 (single isomer, unassigned; (+)) (as salt: maleate) [Example 48, (+)-5-(4-chlorophenyl)-2-methyl-8-morpholin-4-yl-2,3,4,5-tetrahydro-1H-benzo[c]azepine]
33 | 99 to 102 °C | CN1CCC(c2ccc3ccccc3c2)c2ccc(-c3cccnn3)cc2C1 (single isomer, unassigned; (+)) (as salt: maleate) [Example 50, (+)-2-methyl-5-naphthalen-2-yl-8-pyridazin-3-yl-2,3,4,5-tetrahydro-1H-benzo[c]azepine]
34 | 110 to 112 °C | CN1CCC(c2ccc3ccccc3c2)c2ccc(N3CCOCC3)cc2C1 (single isomer, unassigned; (+)) (as salt: maleate) [Example 51, (+)-2-methyl-8-morpholin-4-yl-5-naphthalen-2-yl-2,3,4,5-tetrahydro-1H-benzo[c]azepine]
35 | 92 to 96 °C | COc1ccc2c(c1)CN(C)CCC2c1ccc2sccc2c1 (single isomer, unassigned; (+)) (as salt: maleate) [Example 52 (+), (+)-5-benzo[b]thiophen-5-yl-8-methoxy-2-methyl-2,3,4,5-tetrahydro-1H-benzo[c]azepine]
